Assay results taken from ChEMBL document CHEMBL5375956, “Discovery of Pyrazolo[1,5-a]pyrimidine Derivative as a Novel and Selective ALKBH5 Inhibitor for the Treatment of AML” (J Med Chem, 2023).
Calls of active or inactive are those of the source. No cut-off for these calls is given here.

How the values were obtained:
RNA demethylase ALKBH5 [1] = target: T1, RNA demethylase ALKBH5 (Homo sapiens, UniProt Q6P6C2); assay: Binding affinity to biotinylated ALKBH5 (66 to 292 residues)(unknown origin) expressed in Escherichia coli BL21(DE3) assessed as equilibrium dissociation constant by BLI assay
Target sequence in this assay (Q6P6C2 whole entry, the tested form may be a part): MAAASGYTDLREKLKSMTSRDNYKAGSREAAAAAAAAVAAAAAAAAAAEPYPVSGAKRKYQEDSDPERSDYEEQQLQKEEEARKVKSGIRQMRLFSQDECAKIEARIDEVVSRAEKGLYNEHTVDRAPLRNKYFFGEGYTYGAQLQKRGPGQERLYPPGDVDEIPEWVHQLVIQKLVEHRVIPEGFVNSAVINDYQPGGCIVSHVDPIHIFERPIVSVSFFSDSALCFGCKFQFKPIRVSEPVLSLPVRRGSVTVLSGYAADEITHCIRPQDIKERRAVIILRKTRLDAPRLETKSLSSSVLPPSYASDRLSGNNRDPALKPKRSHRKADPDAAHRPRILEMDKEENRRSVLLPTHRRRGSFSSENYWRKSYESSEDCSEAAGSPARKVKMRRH

RNA demethylase ALKBH5 [2] = target: T1, RNA demethylase ALKBH5; assay: Binding affinity to NT-647-NHS fluorescent dye-labeled wild-type ALKBH5 (66 to 292 residues)(unknown origin) expressed in Escherichia coli BL21(DE3) using m6A-ssDNA as substrate assessed as dissociation constant incubated for 15 mins by MST assay
Target sequence in this assay (Q6P6C2 whole entry, the tested form may be a part): as above

RNA demethylase ALKBH5 [3] = target: RNA demethylase ALKBH5 (Homo sapiens, UniProt Q6P6C2, R130A); assay: Binding affinity to NT-647-NHS fluorescent dye-labeled ALKBH5 R130A mutant (unknown origin) expressed in Escherichia coli BL21(DE3) using m6A-ssDNA as substrate assessed as dissociation constant incubated for 15 mins by MST assay
Chain of RNA demethylase ALKBH5 (Homo sapiens, UniProt Q6P6C2, R130A) (Q6P6C2 2-394 R130A limits assumed): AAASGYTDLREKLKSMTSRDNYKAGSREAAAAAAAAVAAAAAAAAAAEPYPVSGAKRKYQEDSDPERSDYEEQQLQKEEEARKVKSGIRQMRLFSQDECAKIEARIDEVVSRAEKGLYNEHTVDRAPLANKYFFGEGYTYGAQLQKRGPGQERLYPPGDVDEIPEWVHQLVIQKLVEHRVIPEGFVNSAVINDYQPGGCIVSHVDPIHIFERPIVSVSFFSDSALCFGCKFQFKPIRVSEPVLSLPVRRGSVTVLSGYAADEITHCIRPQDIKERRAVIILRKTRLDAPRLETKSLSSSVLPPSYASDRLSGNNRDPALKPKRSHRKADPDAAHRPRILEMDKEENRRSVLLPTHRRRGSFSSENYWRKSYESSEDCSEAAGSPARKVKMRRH

RNA demethylase ALKBH5 [4] = target: RNA demethylase ALKBH5 (Homo sapiens, UniProt Q6P6C2, Y139A); assay: Binding affinity to NT-647-NHS fluorescent dye-labeled ALKBH5 Y139A mutant (unknown origin) expressed in Escherichia coli BL21(DE3) using m6A-ssDNA as substrate assessed as dissociation constant incubated for 15 mins by MST assay
Chain of RNA demethylase ALKBH5 (Homo sapiens, UniProt Q6P6C2, Y139A) (Q6P6C2 2-394 Y139A limits assumed): as the sequence (Q6P6C2 2-394 R130A limits assumed) above, with A129R, Y138A counted along it

RNA demethylase ALKBH5 [5] = target: RNA demethylase ALKBH5 (Homo sapiens, UniProt Q6P6C2, R277A/Y139A); assay: Binding affinity to NT-647-NHS fluorescent dye-labeled ALKBH5 Y139A/R277A mutant (unknown origin) expressed in Escherichia coli BL21(DE3) using m6A-ssDNA as substrate assessed as dissociation constant incubated for 15 mins by MST assay
Chain of RNA demethylase ALKBH5 (Homo sapiens, UniProt Q6P6C2, R277A/Y139A) (Q6P6C2 2-394 Y139A/R277A limits assumed): as the sequence (Q6P6C2 2-394 R130A limits assumed) above, with A129R, Y138A, R276A counted along it

RNA demethylase ALKBH5 [6] = target: T1, RNA demethylase ALKBH5; assay: Competitive binding affinity to ALKBH5 (66 to 292 residues)(unknown origin) expressed in Escherichia coli BL21(DE3) using 5'-ATTGTCA(m6A)CAGCAGA-FAM-3' as substrate assessed as dissociation constant incubated for 30 mins in presence of 2-OG by FP assay
Target sequence in this assay (Q6P6C2 whole entry, the tested form may be a part): as the sequence (Q6P6C2 whole entry, the tested form may be a part) above

[7] = target: Alpha-ketoglutarate-dependent dioxygenase FTO (Homo sapiens, UniProt Q9C0B1); assay: Inhibition of FTO (32 to 505 residues)(unknown origin) expressed in Escherichia coli BL21(DE3) using 5'-TAGACATTGCCATTCTCGATAGG(m6A)-TCCGGTCAAACCTAGACGAATTCCA-3' as substrate at 100 uM incubated for 2 hrs by restriction endonuclease digestion assay
Chain of Alpha-ketoglutarate-dependent dioxygenase FTO (Q9C0B1 whole entry, looked up, the tested form may be a part): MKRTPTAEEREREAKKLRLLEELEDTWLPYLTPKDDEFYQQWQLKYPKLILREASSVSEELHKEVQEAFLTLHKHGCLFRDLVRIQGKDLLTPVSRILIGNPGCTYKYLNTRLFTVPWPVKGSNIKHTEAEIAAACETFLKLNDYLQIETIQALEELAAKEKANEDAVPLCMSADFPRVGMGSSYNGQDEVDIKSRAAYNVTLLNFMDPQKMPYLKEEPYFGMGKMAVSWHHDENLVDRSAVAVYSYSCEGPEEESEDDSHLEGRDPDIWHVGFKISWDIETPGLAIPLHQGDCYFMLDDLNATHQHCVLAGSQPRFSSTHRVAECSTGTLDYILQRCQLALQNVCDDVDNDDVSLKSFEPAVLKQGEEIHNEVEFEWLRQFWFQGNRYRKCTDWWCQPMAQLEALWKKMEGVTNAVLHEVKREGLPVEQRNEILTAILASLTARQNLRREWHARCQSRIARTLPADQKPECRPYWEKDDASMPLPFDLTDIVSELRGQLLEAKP

[8] = target: T2, Alpha-ketoglutarate-dependent dioxygenase alkB homolog 3 (Homo sapiens) (UniProt Q96Q83); assay: Inhibition of ALKBH3 (62 to 286 residues)(unknown origin) expressed in Escherichia coli BL21(DE3) using 5'-TAGACATTGCCATTCTCGATAGG(m6A)-TCCGGTCAAACCTAGACGAATTCCA-3' as substrate at 100 uM incubated for 2 hrs by restriction endonuclease digestion assay
T2 sequence (whole entry): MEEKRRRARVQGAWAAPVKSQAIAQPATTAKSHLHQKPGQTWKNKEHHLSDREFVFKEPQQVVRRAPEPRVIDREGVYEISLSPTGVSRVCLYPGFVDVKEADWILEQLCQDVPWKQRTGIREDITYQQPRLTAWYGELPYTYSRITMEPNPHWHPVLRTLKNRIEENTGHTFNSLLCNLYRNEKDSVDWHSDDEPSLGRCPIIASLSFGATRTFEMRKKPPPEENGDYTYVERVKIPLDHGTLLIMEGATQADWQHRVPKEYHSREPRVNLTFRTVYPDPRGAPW

RNA demethylase ALKBH5 [9] = target: T1, RNA demethylase ALKBH5; assay: Inhibition of ALKBH5 in human MOLM-13 cells assessed as increase in m6A RNA level by colorimetric assay; format: cell-based; conditions: dose 10-20 µM
Target sequence in this assay (Q6P6C2 2-394 limits assumed): as the sequence (Q6P6C2 2-394 R130A limits assumed) above, with A129R counted along it

MV4-11 [10] = assay: Induction of apoptosis in human MV4-11 cells assessed as early apoptosis cells at 5 uM incubated for 48 hrs by Annexin V-FITC/PI staining based flow cytometry (reference value: 1.24 %); format: functional
MV4-11 [11] = assay: Induction of apoptosis in human MV4-11 cells assessed as necrotic cells at 5 uM incubated for 48 hrs by Annexin V-FITC/PI staining based flow cytometry (reference value: 1.81 %); format: functional
MV4-11 [12] = assay: Induction of apoptosis in human MV4-11 cells assessed as early apoptosis cells at 10 uM incubated for 48 hrs by Annexin V-FITC/PI staining based flow cytometry (reference value: 1.24 %); format: functional
MV4-11 [13] = assay: Induction of apoptosis in human MV4-11 cells assessed as late apoptosis cells at 10 uM incubated for 48 hrs by Annexin V-FITC/PI staining based flow cytometry (reference value: 7.17 %); format: functional
MV4-11 [14] = assay: Downregulation of TACC3 mRNA level in human MV4-11 cells at 5 to 10 uM incubated for 48 hrs by qRT-PCR analysis; format: functional, cell-based; conditions: dose 5-10 µM
MV4-11 [15] = assay: Downregulation of c-Myc mRNA level in human MV4-11 cells at 5 to 10 uM incubated for 48 hrs by qRT-PCR analysis; format: functional, cell-based; conditions: dose 5-10 µM
MOLM-13 [16] = assay: Downregulation of TACC3 level in human MOLM-13 cells upto 10 uM incubated for 48 hrs by Western blot analysis; format: functional, cell-based
MOLM-13 [17] = assay: Downregulation of c-Myc level in human MOLM-13 cells upto 10 uM incubated for 48 hrs by Western blot analysis; format: functional, cell-based
HEK293 [18] = assay: Effect on TACC3 mRNA level in HEK293 cells at 5 to 10 uM incubated for 48 hrs by qRT-PCR analysis; format: functional, cell-based; conditions: Homo sapiens, dose 5-10 µM
HEK293 [19] = assay: Effect on c-Myc level in HEK293 cells upto 10 uM incubated for 48 hrs by Western blot analysis; format: functional, cell-based; conditions: Homo sapiens
[20] = Half life in Sprague-Dawley rat at 2 mg/kg, iv measured for 1 to 1440 mins by LC-MS/MS analysis; format: ADME, organism-based; conditions: in vivo, time 1-1440 min
[21] = Cmax in Sprague-Dawley rat at 2 mg/kg, iv measured for 1 to 1440 mins by LC-MS/MS analysis; format: ADME, organism-based; conditions: in vivo
[22] = Cmax in Sprague-Dawley rat at 10 mg/kg, po measured for 1 to 1440 mins by LC-MS/MS analysis; format: ADME, organism-based; conditions: in vivo
[23] = AUC (0 to infinity) in Sprague-Dawley rat at 10 mg/kg, po measured for 1 to 1440 mins by LC-MS/MS analysis; format: ADME, organism-based; conditions: in vivo
[24] = Apparent volume of distribution during terminal phase in Sprague-Dawley rat at 10 mg/kg, po measured for 1 to 1440 mins by LC-MS/MS analysis; format: ADME, organism-based; conditions: in vivo, time 1-1440 min, read-out: Vz/F
[25] = Toxicity in nude mouse xenografted with human MV4-11 cells assessed as body weight change at 10 to 40 mg/kg, ip treated every day for 14 days; format: organism-based; conditions: in vivo, 336 h, dose 10-40 mg/kg, time 14 day
[26] = Toxicity in nude mouse xenografted with human MV4-11 cells assessed as heart weight change at 10 to 40 mg/kg, ip treated every day for 14 days; format: organism-based; conditions: in vivo, 336 h, dose 10-40 mg/kg, time 14 day
[27] = Toxicity in nude mouse xenografted with human MV4-11 cells assessed as liver weight change at 10 to 40 mg/kg, ip treated every day for 14 days; format: organism-based; conditions: in vivo, 336 h, dose 10-40 mg/kg, time 14 day

Kd (RNA demethylase ALKBH5 [1]): 6.62 µM | Kd (RNA demethylase ALKBH5 [2]): 11.2 µM | Kd (RNA demethylase ALKBH5 [3]): 373 µM | Kd (RNA demethylase ALKBH5 [4]): 290 µM | Kd (RNA demethylase ALKBH5 [5]): 15.8 µM | Kd (RNA demethylase ALKBH5 [6]): ~0.0657 µM | inhibition [7]: inactive | inhibition [8]: inactive | inhibition (RNA demethylase ALKBH5 [9]): Dose-Dependent Effect | half-life [20]: 36.7 min | Cmax [21]: 13400 ng/mL | Cmax [22]: 2340 ng/mL | AUC(0-inf) [23]: 5820 ng·h/mL | Vd/F [24]: 6.18 L/kg
SMILES: O=C(OCc1ccc(C(F)(F)F)cc1)c1ccc(-c2cc3ncc(C(=O)c4c(O)ccc([N+](=O)[O-])c4O)cn3n2)cc1
Activity (MV4-11 [10]): 1.44% | Activity (MV4-11 [11]): 3.62% | Activity (MV4-11 [12]): 2.59% | Activity (MV4-11 [13]): 55.4% | Activity (MV4-11 [14]): Active | Activity (MV4-11 [15]): Active | Activity (MOLM-13 [16]): Active | Activity (MOLM-13 [17]): Active | Activity (HEK293 [18]): inactive | Activity (HEK293 [19]): inactive | Activity [25]: Non-Toxic | Activity [26]: Non-Toxic | Activity [27]: Non-Toxic
